Literature values in patent publication US20230374563A1, “Methods for Antimicrobial Susceptibility Testing” (MicrobeDX, Inc., priority 2017, published 2023).
≈ marks a conversion by molar mass, not a printed value.

System: bacteria
Settings: for CLSI MIC Cutoffs for (Urine) AST Determination I / MIC Criteria CLSI M100 (2018) I: Intermediate; for CLSI MIC Cutoffs for (Urine) AST Determination R / MIC Criteria CLSI M100 (2018) R: Resistant; for CLSI MIC Cutoffs for (Urine) AST Determination S / MIC Criteria CLSI M100 (2018) S: Susceptible; for MIC Criteria CLSI M100 (2018) S: cefazolin cutoffs for cases not identified as uncomplicated

| Compound | CLSI MIC Cutoffs for (Urine) AST Determination I | CLSI MIC Cutoffs for (Urine) AST Determination R | CLSI MIC Cutoffs for (Urine) AST Determination S | MIC Criteria CLSI M100 (2018) I [µg/mL] | MIC Criteria CLSI M100 (2018) R [µg/mL] | MIC Criteria CLSI M100 (2018) S [µg/mL] |
| --- | --- | --- | --- | --- | --- | --- |
| NCC[C@H](O)C(=O)N[C@@H]1C[C@H](N)[C@@H](O[C@H]2O[C@H](CN)[C@@H](O)[C@H](O)[C@H]2O)[C@H](O)[C@H]1O[C@H]1O[C@H](CO)[C@@H](O)[C@H](N)[C@H]1O [Amikacin] | 32 µg/mL | ≥64 µg/mL | ≤16 µg/mL | – | – | – |
| C[C@@H](O)[C@H]1C(=O)N2C(C(=O)O)=C(S[C@@H]3CN[C@H](C(=O)Nc4cccc(C(=O)O)c4)C3)[C@H](C)[C@H]12 [Ertapenem] | 1 µg/mL | ≥2 µg/mL | ≤0.5 µg/mL | – | – | – |
| Trimethoprim/Sulfamethoxazole [TMP/SMX] | – | ≥4/76 | ≤2/38 | – | – | – |
| CC1(C)S[C@@H]2[C@H](NC(=O)[C@H](N)c3ccccc3)C(=O)N2[C@H]1C(=O)O [Ampicillin] | 16 µg/mL | ≥32 µg/mL | <8 µg/mL | 16 (≈ 45.8 µM) | ≥32 | ≤8 |
| Amoxicillin/Clavulanate [Amox/Clav] | 16/8 | ≥32/16 | ≤8/4 | – | – | – |
| Gentamicin | 8 µg/mL | ≥16 µg/mL | ≤4 µg/mL | – | – | – |
| Piperacillin/Tazobactam [Pip/Tazo] | – | ≥128/4 | ≤16/4 | – | – | – |
| CO/N=C(\C(=O)N[C@@H]1C(=O)N2C(C(=O)O)=C(CSc3nc(=O)c(=O)[nH]n3C)CS[C@H]12)c1csc(N)n1 [Ceftriaxone] | 2 µg/mL | ≥4 µg/mL | ≤1 µg/mL | 2 (≈ 3.61 µM) | ≥4 | ≤1 |
| C[C@@H](O)[C@H]1C(=O)N2C(C(=O)O)=C(S[C@@H]3CN[C@H](C(=O)N(C)C)C3)[C@H](C)[C@H]12 [Meropenem] | 2 µg/mL | ≥4 µg/mL | ≤1 µg/mL | – | – | – |
| C[C@@H]1O[C@@H]1P(=O)(O)O [Fosfomycin] | 128 µg/mL | ≥256 µg/mL | ≤64 µg/mL | – | – | – |
